Measured values published in the supplement of paper PMC10307832.

Assays:
Test in all cases: relative viability (nuclei count vs DMSO), 5 days (fraction); higher = more cells survive
[1] = compound: CC[C@H](Nc1ncnc2[nH]cnc12)c1nc2cccc(F)c2c(=O)n1-c1ccccc1 [Idelalisib] + O=C(c1cc(Cc2n[nH]c(=O)c3ccccc23)ccc1F)N1CCN(C(=O)C2CC2)CC1 [Olaparib] (partner 8 µM)
Outline: (§1)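 One day after seeding in 1536-well plates, lung cancer cell lines were dosed by pin tool. Dosing was either single-drug or a fixed anchor-drug dose plus five library-drug doses (not always all listed) in √10 steps. After 5 days, nuclei were stained in one fix-and-stain step and counted on 4× images, and relative viability is the nuclei count of treated wells over that of vehicle wells, given as the median of duplicate plates.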

[2] = compound: Nc1nc2[nH]cc(CCc3ccc(C(=O)N[C@@H](CCC(=O)O)C(=O)O)cc3)c2c(=O)[nH]1 [Pemetrexed] + COc1cc2c(Oc3ccc(NC(=O)C4(C(=O)Nc5ccc(F)cc5)CC4)cc3F)ccnc2cc1OCCCN1CCOCC1 [Foretinib] (partner 0.25 µM)
Outline: as §1

[3] = compound: CC[C@H](Nc1ncnc2[nH]cnc12)c1nc2cccc(F)c2c(=O)n1-c1ccccc1 [Idelalisib] + CC(=O)Nc1cccc(-n2c(=O)n(C3CC3)c(=O)c3c(Nc4ccc(I)cc4F)n(C)c(=O)c(C)c32)c1 [Trametinib] (partner 0.02 µM)
Outline: as §1

[4] = compound: Nc1nc2[nH]cc(CCc3ccc(C(=O)N[C@@H](CCC(=O)O)C(=O)O)cc3)c2c(=O)[nH]1 [Pemetrexed] + N=C(N)NC(=N)NCCc1ccccc1 [Phenformin] (partner 250 µM)
Outline: as §1

In the case of NCI-H1793, the relative viability ([1]; first compound 0.04 µM) is reported as 0.957, the relative viability ([1]; first compound 0.1265 µM) is reported as 0.764 and the relative viability ([1]; first compound 1.265 µM) is reported as 0.566. For the same cell line, the relative viability ([1]; first compound 4 µM) was 0.529, the relative viability ([2]; first compound 0.002 µM) was 0.844 and the relative viability ([2]; first compound 0.006325 µM) was 0.575. For the same cell line, the relative viability ([2]; first compound 0.02 µM) was 0.733, the relative viability ([2]; first compound 0.06325 µM) was 0.465 and the relative viability ([2]; first compound 0.2 µM) was 0.749. It also gave a relative viability ([3]; first compound 0.04 µM) of 0.431, a relative viability ([3]; first compound 0.1265 µM) of 0.467 and a relative viability ([3]; first compound 1.265 µM) of 0.475. For the same cell line, the relative viability ([3]; first compound 4 µM) was 0.383, the relative viability ([4]; first compound 0.002 µM) was 0.436 and the relative viability ([4]; first compound 0.006325 µM) was 0.361. The relative viability ([4]; first compound 0.02 µM) was 0.42, the relative viability ([4]; first compound 0.06325 µM) was 0.349 and the relative viability ([4]; first compound 0.2 µM) was 0.405.
Work on BEN yielded a relative viability ([1]; first compound 0.04 µM) of 1.02, a relative viability ([1]; first compound 0.1265 µM) of 0.955 and a relative viability ([1]; first compound 0.4 µM) of 1.02. It also gave a relative viability ([1]; first compound 1.265 µM) of 1.12, a relative viability ([1]; first compound 4 µM) of 0.847 and a relative viability ([2]; first compound 0.002 µM) of 0.739. For the same cell line, the relative viability ([2]; first compound 0.006325 µM) was 0.739, the relative viability ([2]; first compound 0.02 µM) was 0.83 and the relative viability ([2]; first compound 0.06325 µM) was 0.615. The relative viability ([2]; first compound 0.2 µM) was 0.726, the relative viability ([3]; first compound 0.04 µM) was 1.01 and the relative viability ([3]; first compound 0.1265 µM) was 0.98. For the same cell line, the relative viability ([3]; first compound 0.4 µM) was 0.929, the relative viability ([3]; first compound 1.265 µM) was 0.735 and the relative viability ([3]; first compound 4 µM) was 0.766. It also gave a relative viability ([4]; first compound 0.002 µM) of 0.288, a relative viability ([4]; first compound 0.006325 µM) of 0.283 and a relative viability ([4]; first compound 0.02 µM) of 0.255. The relative viability ([4]; first compound 0.06325 µM) was 0.272 and the relative viability ([4]; first compound 0.2 µM) was 0.275.
NCI-H647 was tested, and the relative viability ([1]; first compound 0.04 µM) was 0.623, the relative viability ([1]; first compound 0.1265 µM) was 0.602 and the relative viability ([1]; first compound 0.4 µM) was 0.489. It also gave a relative viability ([1]; first compound 1.265 µM) of 0.614, a relative viability ([1]; first compound 4 µM) of 0.281 and a relative viability ([2]; first compound 0.002 µM) of 0.946. It also gave a relative viability ([2]; first compound 0.006325 µM) of 1.07, a relative viability ([2]; first compound 0.02 µM) of 1.33 and a relative viability ([2]; first compound 0.06325 µM) of 0.989. For the same cell line, the relative viability ([2]; first compound 0.2 µM) was 0.386, the relative viability ([3]; first compound 0.04 µM) was 0.431 and the relative viability ([3]; first compound 0.1265 µM) was 0.485. For the same cell line, the relative viability ([3]; first compound 0.4 µM) was 0.423, the relative viability ([3]; first compound 1.265 µM) was 0.354 and the relative viability ([3]; first compound 4 µM) was 0.239. It also gave a relative viability ([4]; first compound 0.002 µM) of 0.457, a relative viability ([4]; first compound 0.006325 µM) of 0.445 and a relative viability ([4]; first compound 0.02 µM) of 0.598. It also gave a relative viability ([4]; first compound 0.06325 µM) of 0.482 and a relative viability ([4]; first compound 0.2 µM) of 0.236.
Work on PC-14 yielded a relative viability ([1]; first compound 0.04 µM) of 0.268, a relative viability ([1]; first compound 0.1265 µM) of 0.232 and a relative viability ([1]; first compound 0.4 µM) of 0.239. The relative viability ([1]; first compound 1.265 µM) was 0.384, the relative viability ([1]; first compound 4 µM) was 0.297 and the relative viability ([2]; first compound 0.002 µM) was 0.894. For the same cell line, the relative viability ([2]; first compound 0.006325 µM) was 0.927, the relative viability ([2]; first compound 0.02 µM) was 1 and the relative viability ([2]; first compound 0.06325 µM) was 0.611. The relative viability ([2]; first compound 0.2 µM) was 0.258, the relative viability ([3]; first compound 0.04 µM) was 0.648 and the relative viability ([3]; first compound 0.1265 µM) was 0.757. For the same cell line, the relative viability ([3]; first compound 0.4 µM) was 0.695, the relative viability ([3]; first compound 1.265 µM) was 0.723 and the relative viability ([3]; first compound 4 µM) was 0.509. For the same cell line, the relative viability ([4]; first compound 0.002 µM) was 0.452, the relative viability ([4]; first compound 0.006325 µM) was 0.582 and the relative viability ([4]; first compound 0.02 µM) was 0.901. The relative viability ([4]; first compound 0.06325 µM) was 0.445 and the relative viability ([4]; first compound 0.2 µM) was 0.27.
Cell Line HCC-78 has a relative viability ([1]; first compound 0.04 µM) of 0.78, a relative viability ([1]; first compound 0.1265 µM) of 0.855 and a relative viability ([1]; first compound 0.4 µM) of 0.553. It also gave a relative viability ([1]; first compound 1.265 µM) of 0.781, a relative viability ([1]; first compound 4 µM) of 0.585 and a relative viability ([2]; first compound 0.002 µM) of 0.447. The relative viability ([2]; first compound 0.006325 µM) was 0.541, the relative viability ([2]; first compound 0.02 µM) was 0.54 and the relative viability ([2]; first compound 0.06325 µM) was 0.319. For the same cell line, the relative viability ([2]; first compound 0.2 µM) was 0.298, the relative viability ([3]; first compound 0.04 µM) was 0.68 and the relative viability ([3]; first compound 0.1265 µM) was 0.702. The relative viability ([3]; first compound 0.4 µM) was 0.711, the relative viability ([3]; first compound 1.265 µM) was 0.704 and the relative viability ([3]; first compound 4 µM) was 0.542. For the same cell line, the relative viability ([4]; first compound 0.002 µM) was 0.446, the relative viability ([4]; first compound 0.006325 µM) was 0.694 and the relative viability ([4]; first compound 0.02 µM) was 0.599. The relative viability ([4]; first compound 0.06325 µM) was 0.361 and the relative viability ([4]; first compound 0.2 µM) was 0.255.
Work on NCI-H1666 yielded a relative viability ([1]; first compound 0.04 µM) of 0.704, a relative viability ([1]; first compound 0.1265 µM) of 0.758 and a relative viability ([1]; first compound 0.4 µM) of 0.733. The relative viability ([1]; first compound 1.265 µM) was 0.747, the relative viability ([1]; first compound 4 µM) was 0.724 and the relative viability ([2]; first compound 0.002 µM) was 0.942. The relative viability ([2]; first compound 0.006325 µM) was 0.996, the relative viability ([2]; first compound 0.02 µM) was 0.929 and the relative viability ([2]; first compound 0.06325 µM) was 0.953. For the same cell line, the relative viability ([2]; first compound 0.2 µM) was 0.832, the relative viability ([3]; first compound 0.04 µM) was 0.806 and the relative viability ([3]; first compound 0.1265 µM) was 0.931. It also gave a relative viability ([3]; first compound 0.4 µM) of 0.815, a relative viability ([3]; first compound 1.265 µM) of 0.803 and a relative viability ([3]; first compound 4 µM) of 0.831. For the same cell line, the relative viability ([4]; first compound 0.002 µM) was 0.577, the relative viability ([4]; first compound 0.006325 µM) was 0.55 and the relative viability ([4]; first compound 0.02 µM) was 0.625. For the same cell line, the relative viability ([4]; first compound 0.06325 µM) was 0.551 and the relative viability ([4]; first compound 0.2 µM) was 0.537.
